The record followed here is ChEMBL document CHEMBL4052651, “Searching for novel N1-substituted benzimidazol-2-ones as non-nucleoside HIV-1 RT inhibitors” (Bioorg Med Chem, 2017).

As usually defined, the IC50 is the concentration that inhibits the measured activity by half. In general, CC50 refers to the concentration at which the toxic effect on the cells reaches its halfway point. What is called EC50 is the concentration needed to bring the measured effect to its halfway point.

The target of data set [1] is Human immunodeficiency virus type 1 reverse transcriptase (Human immunodeficiency virus 1, UniProt Q72547, K103N). As to the kind of experiment: Inhibition of HIV-1 reverse transcriptase K103N mutant assessed as reduction in dTTP incorporation using poly(rA)/oligo(dT)16 as template/primer after 40 mins by PicoGreen dye based spectrofluorometric analysis.
The nature of data set [2]: Cytotoxicity against human MT4 cells assessed as reduction in cell viability after 5 days by MTT assay. In kind it is cell-based. (Formazan colour is commonly taken as a measure of viable cells.)
Data set [3] deals with Human immunodeficiency virus type 1 reverse transcriptase (Human immunodeficiency virus 1, UniProt Q72547). Briefly: Inhibition of recombinant wild-type HIV-1 reverse transcriptase p66/p51 RNA-dependent DNA polymerase activity expressed in Escherichia coli JM109 assessed as reduction in dTTP incorporation using poly(rA)/oligo(dT)16 as template/primer after 40 mins by PicoGreen dye based spectrofluorometric analysis.

The target in data set [4] is Human immunodeficiency virus type 1 reverse transcriptase (Human immunodeficiency virus 1, UniProt Q72547, Y188L). Briefly: Inhibition of HIV-1 reverse transcriptase Y188L mutant assessed as reduction in dTTP incorporation using poly(rA)/oligo(dT)16 as template/primer after 40 mins by PicoGreen dye based spectrofluorometric analysis.
Data set [5] concerns the target Human immunodeficiency virus type 1 reverse transcriptase (Human immunodeficiency virus 1, UniProt Q72547, E138K). As to the kind of experiment: Inhibition of HIV-1 reverse transcriptase E138K mutant assessed as reduction in dTTP incorporation using poly(rA)/oligo(dT)16 as template/primer after 40 mins by PicoGreen dye based spectrofluorometric analysis.
In data set [6] the test system is Human immunodeficiency virus 1. Briefly: Antiviral activity against HIV1 3B infected in human MT4 cells assessed as inhibition of virus-induced cytopathic effect after 5 days by MTT assay. In kind it is functional, cell-based. Particulars: Human immunodeficiency virus 1, 3B, MT4, 120 h. In general terms: Cytopathic effects are the visible damage that an infection or toxin causes in cultured cells.

For data set [7], the target named is Human immunodeficiency virus type 1 reverse transcriptase (Human immunodeficiency virus 1, UniProt Q72547, G190A). Briefly: Inhibition of HIV-1 reverse transcriptase G190A mutant assessed as reduction in dTTP incorporation using poly(rA)/oligo(dT)16 as template/primer after 40 mins by PicoGreen dye based spectrofluorometric analysis.
The nature of data set [8]: Selectivity index, ratio of CC50 for human MT4 cells to EC50 for HIV1 3B infected in human MT4 cells. The settings on record: HIV1 3B infected MT4 cells, read-out: Ratio CC50/EC50. In kind it is toxicity, cell-based.
For data set [9], the target named is Human immunodeficiency virus type 1 reverse transcriptase (Human immunodeficiency virus 1, UniProt Q72547, V106A). Briefly: Inhibition of HIV-1 reverse transcriptase V106A mutant assessed as reduction in dTTP incorporation using poly(rA)/oligo(dT)16 as template/primer after 40 mins by PicoGreen dye based spectrofluorometric analysis.
For data set [10], the target named is Human immunodeficiency virus type 1 reverse transcriptase (Human immunodeficiency virus 1, UniProt Q72547, L100I). Briefly: Inhibition of HIV-1 reverse transcriptase L100I mutant assessed as reduction in dTTP incorporation using poly(rA)/oligo(dT)16 as template/primer after 40 mins by PicoGreen dye based spectrofluorometric analysis.
Data set [11] deals with Human immunodeficiency virus type 1 reverse transcriptase (Human immunodeficiency virus 1, UniProt Q72547, Y181C). As to the kind of experiment: Inhibition of HIV-1 reverse transcriptase Y181C mutant assessed as reduction in dTTP incorporation using poly(rA)/oligo(dT)16 as template/primer after 40 mins by PicoGreen dye based spectrofluorometric analysis.

For `O=c1[nH]c2ccc(Cl)cc2n1S(=O)(=O)CCc1ccccc1`, the IC50 in [1] is above 356 µM; in data set [3], 76 µM; in data set [4], above 356 µM; in data set [5], above 356 µM; in [7] it was above 356 µM; in [9], above 356 µM. Also, the IC50 in [10] and in [11] was above 356 µM each time. Besides, in data set [2], the CC50 at 120 h was found to be 30 µM. The EC50 in data set [6] is above 30 µM. For the same molecule, in [8], the selectivity ratio is below 1.

In the case of `O=c1[nH]c2ccc(Cl)cc2n1S(=O)(=O)CCc1cccc(Cl)c1`, the concentration for half-maximal inhibition (IC50) in [1] is above 323 µM; in data set [3] it was 131 µM; in data set [4], above 323 µM; in [5], above 323 µM; in data set [7] it was 258 µM; in data set [9], 45 µM. In addition, the 50% inhibitory concentration (IC50) in data set [10] is at least 285 µM; in data set [11], 74 µM. The CC50 at 120 h in [2] is 63 µM. For the same molecule, the EC50 in data set [6] is above 64 µM. For the same molecule, the selectivity ratio in [8] is below 1.

Turning to `Cc1ccnc2c1NC(=O)c1cccnc1N2C1CC1` [NEVIRAPINE], the CC50 at 120 h in [2] was above 15 µM. Further, the EC50 in [6] was 0.18 µM.

Take `Cc1ccccc1CS(=O)(=O)n1c(=O)[nH]c2ccc(Cl)cc21`: the IC50 in [1] was above 356 µM; in [3], 21 µM; in data set [4], above 356 µM; in [5], above 356 µM; in data set [7], above 356 µM; in data set [9], above 356 µM. Also, the figures for the IC50 in [10] and in [11] were at least 64 µM and above 356 µM, respectively. Moreover, the CC50 at 120 h in data set [2] was 238 µM. Besides, the EC50 in [6] turned out to be 10 µM. Further, in data set [8], the selectivity ratio was determined as 24.

For the molecule `Cc1ccc(CCS(=O)(=O)n2c(=O)[nH]c3ccc(Cl)cc32)cc1`, the IC50 is above 342 µM in data set [1]; 218 µM in [3]; 249 µM in [4]; 160 µM in [5]; 89 µM in data set [7]; 95 µM in data set [9]. The figures for the IC50 in data set [10] and in [11] were 311 µM and 179 µM, respectively. In addition, in [2], the CC50 at 120 h was 161 µM. In data set [6], the EC50 was above 160 µM. In addition, the selectivity ratio in [8] is below 1.

Consider `O=c1[nH]c2ccc(Cl)cc2n1S(=O)(=O)Cc1ccccc1Cl`, for which the IC50 is above 335 µM in data set [1]; 1.3 µM in data set [3]; above 335 µM in data set [4]; 12 µM in data set [5]; 238 µM in [7]; 1.8 µM in [9]. For the same molecule, the IC50 is 7.13 µM in data set [10] and above 335 µM in data set [11]. Besides, the CC50 at 120 h in data set [2] was determined as 52 µM. Besides, the EC50 in data set [6] stood at 0.19 µM. The selectivity ratio in data set [8] was found to be 271.

Consider `Cc1ccc(CS(=O)(=O)n2c(=O)[nH]c3ccc(Cl)cc32)cc1`, for which the IC50 in [1] is 280 µM; in data set [3], 2.25 µM; in data set [4], 280 µM; in data set [5], 63 µM; in [7], at least 310 µM; in data set [9] it was 6.6 µM. For the same molecule, the IC50 in data set [10] was determined as 55 µM; in [11], 183 µM. Moreover, in data set [2], the cytotoxic concentration (CC50) at 120 h amounted to 93 µM. The EC50 in data set [6] stood at 1.93 µM. In addition, in data set [8], the selectivity ratio was 48.

For `Cc1ccccc1CCS(=O)(=O)n1c(=O)[nH]c2ccc(Cl)cc21`, the IC50 in [1] is 89 µM; in data set [3], 29 µM; in data set [4], 165 µM; in data set [5] it was 49 µM; in data set [7], 54 µM; in data set [9] it was 44 µM. Moreover, the results for the IC50 in data set [10] and in data set [11] were 59 µM and 32 µM, respectively. Besides, the CC50 at 120 h in data set [2] was 32 µM. Also, in data set [6], the EC50 was above 32 µM. Further, the selectivity ratio in data set [8] is below 1.

Consider `O=c1[nH]c2ccc(Cl)cc2n1S(=O)(=O)Cc1ccccc1`, for which the IC50 in [1] is above 371 µM; in [3], 17 µM; in data set [4] it was above 371 µM; in [5] it was 98 µM; in [7], 250 µM; in data set [9], 9.38 µM. Moreover, the IC50 in data set [10] was 90 µM; in data set [11] it was at least 273 µM. Besides, in data set [2], the CC50 at 120 h stood at 155 µM. In addition, in data set [6], the EC50 was determined as 0.83 µM. Also, the selectivity ratio in data set [8] was 187.

As to `O=c1[nH]c2ccc(Cl)cc2n1S(=O)(=O)Cc1cccc(Cl)c1`, the half-inhibitory concentration (IC50) in data set [1] is above 335 µM; in [3] it was 6 µM; in data set [4], above 335 µM; in data set [5], 64 µM; in data set [7], 260 µM; in data set [9] it was 6.6 µM. Also, the values for the IC50 in data set [10] and in [11] were 29 µM and above 335 µM, respectively. Also, the CC50 at 120 h in [2] amounted to 152 µM. Moreover, the EC50 in data set [6] was 1.14 µM. Moreover, in [8], the selectivity ratio stood at 134.

`O=C1Nc2ccc(Cl)cc2[C@@](C#CC2CC2)(C(F)(F)F)O1` [EFAVIRENZ]: the CC50 at 120 h in data set [2] is above 6.33 µM.

Take `O=c1[nH]c2ccc(Cl)cc2n1S(=O)(=O)CCc1ccc(Cl)cc1`: the IC50 in [1] was 231 µM; in [3], 95 µM; in data set [4], 227 µM; in data set [5], 108 µM; in [7] it was 69 µM; in data set [9] it was 69 µM. In addition, the IC50 in [10] was 180 µM; in data set [11] it was 107 µM. In addition, in [2], the CC50 at 120 h came out at 91 µM. Also, the EC50 in data set [6] was above 91 µM. The selectivity ratio in [8] is below 1.

For `Cc1cccc(CCS(=O)(=O)n2c(=O)[nH]c3ccc(Cl)cc32)c1`, the IC50 amounted to 119 µM in data set [1]; 39 µM in data set [3]; 219 µM in data set [4]; 88 µM in [5]; 90 µM in data set [7]; 74 µM in data set [9]. The IC50 was 65 µM in data set [10] and 80 µM in data set [11]. Also, the CC50 at 120 h in data set [2] is 31 µM. Also, the EC50 in data set [6] was above 31 µM. Besides, the selectivity ratio in data set [8] is below 1.

With `O=c1[nH]c2ccc(Cl)cc2n1S(=O)(=O)CCc1ccccc1Cl`, the IC50 in data set [1] is above 323 µM; in data set [3], 116 µM; in data set [4], above 323 µM; in data set [5] it was at least 323 µM; in [7] it was 280 µM; in data set [9] it was 137 µM. The IC50 in data set [10] stood at 214 µM; in [11], 176 µM. Besides, the CC50 at 120 h in data set [2] came out at 100 µM. Moreover, the EC50 in [6] was above 100 µM. Further, the selectivity ratio in [8] was below 1.

For `Cc1cccc(CS(=O)(=O)n2c(=O)[nH]c3ccc(Cl)cc32)c1`, the IC50 in data set [1] is 105 µM; in [3] it was 0.79 µM; in data set [4], above 356 µM; in data set [5], 7.6 µM; in [7], 132 µM; in [9] it was 0.9 µM. Besides, the IC50 in [10] came out at 3 µM; in [11], 98 µM. For the same molecule, the CC50 at 120 h in data set [2] was 110 µM. Moreover, the EC50 in [6] was 0.08 µM. The selectivity ratio in data set [8] is 1380.

On to `O=c1[nH]c2ccc(Cl)cc2n1S(=O)(=O)Cc1ccc(Cl)cc1`, for which the IC50 in data set [1] was above 335 µM; in data set [3], 18 µM; in data set [4], above 335 µM; in [5], at least 285 µM; in data set [7], above 335 µM; in data set [9], 15 µM. Besides, the IC50 in data set [10] was 92 µM; in [11], above 335 µM. For the same molecule, the CC50 at 120 h in data set [2] was 77 µM. In data set [6], the EC50 turned out to be 5.06 µM. Also, the selectivity ratio in data set [8] was determined as 15.
